Laboratory results: patent US7345068B2, “Aromatic amino acid derivatives and medicinal compositions” (priority 2002, dated 2008)
pIC50: −log10 of the molar value.

Tests used:
human LAT1 (hLAT1) [1] = test: Inhibition of leucine uptake into hLAT1 expressing Xenopus oocytes; assay type: cell-based; conditions: IC50 hLAT2 expressing cells / IC50 hLAT1 expressing cells
Procedure: (§1) 1) First, human LAT1 (hereinafter referred to as hLAT1), human LAT2 (hereinafter referred to as hLAT2) and human 4F2hc (hereinafter referred to as h4F2hc) were linearized by restriction enzyme treatment. After ethanol precipitation, they were dissolved in a DEPC treatment solution to prepare a mold cDNA. Then, in vitro transcription reaction was carried out in the following manner.
(§2) Reaction composition (50 μl in total) • Mold cDNA 1.5 μg • RNasin RNase inhibitor (Promega) 100 U • rNTP (Amersham. Pharmacia) 10 mM each (rGTP was 1 mM) • DTT 30 mM • m7G(5′)ppp(5′)G (Amersham. Pharmacia) […] • RNA polymerase (Stratagene) 50 U • Transcription buffer
(§3) As the RNA polymerase for hLAT1, hLAT2 and h4F2hc, T3, SP6 and T7 were used, respectively.
(§4) After the above reagents were mixed, they were reacted at 37° C. for 10 minutes, added with 1 μL of 5 mM rGTP, and reacted again at 37° C. for 10 minutes. Further, 1 μL of 5 mM rGTP was added and the reaction was carried out again at 37° C. for 10 minutes. Then, RNase-free DNase (Stratagene) was added and mixed, followed by incubation at 37° C. for 20 minutes. The reaction solution was sequentially extracted with phenol/chloroform, and then with chloroform. Then, half amount of 7.5 M NH4OAc and 2.5-fold amount of cold ethanol were added to perform ethanol precipitation. After centrifugation at 15000 rpm for 30 minutes, the resulting precipitate was washed with cold 80% ethanol and dissolved in 100 μL of a DEPC treatment solution. Thereafter, ethanol precipitation was performed again. The precipitate obtained by centrifugation at 15000 rpm for 30 minutes was washed with cold 80% ethanol and dried for 20 minutes in a centrifugal concentrator. Then, it was dissolved in a DEPC treatment solution to 0.5 mg/mL to prepare a cRNA solution. Thus, cRNA was prepared by in vitro transcription reaction.
(§5) 2) Xenopus laevis was anesthetized by immersing into an anesthetic solution (0.2% MS-222, 0.3% KHCO3), and then cut open in the abdominal region on ice to take out an oocyte mass under the peritoneum. The extracted oocyte mass was shredded with tweezers, which was added to an OR2 culture medium (5 mM HEPES, 82.5 mM NaCl, 2 mM KCl, 1 mM MgCl2, pH 7.5) containing 2 mg/mL of collagenase, incubated at room temperature for about 30 minutes, washed with the OR2 culture medium and transferred into a Barth culture medium (10 mM HEPES, 88 mM NaCl, 1 mM KCl, 0.33 mM Ca(NO3)2, 0.41 mM CaCl2, 0.82 mM MgSO4, 2.4 mM NaHCO3, pH 7.4).
(§6) Then, a follicular cell layer covering the oocytes was peeled under a stereoscopic microscope to isolate the oocytes, to which 50 nL of a cRNA solution was added, respectively. As the cRNA, an equimolar mixture of hLAT1 cRNA and h4F2hc cRNA was injected into the oocytes for hLAT1 expression, and an equimolar mixture of hLAT2 cRNA and h4F2hc cRNA was injected into the oocytes for hLAT2 expression.
(§7) The control cell was injected with distilled water.
(§8) 3) The oocytes after the injection were cultured in a Barth culture medium containing gentamicin for 2 days, from which healthy oocytes were selected and transferred to a 24-well plate at 8-10 cell/well.
(§9) First, after washing twice with choline 100 (5 mM HEPES, 100 mM choline Cl, 2 mM KCl, 1.8 mM CaCl2, 1 mM MgCl2, pH 7.4) at room temperature, choline 100 containing 10 μM ^14C-Leu and specimens of various concentrations was added for an uptake for 30 minutes. Then, after washing with choline 100 of 4° C. six times, the oocytes were transferred to vials one by one and 250 μL of 10% SDS was added thereto, which was shaken at room temperature for an hour to be dissolved. After an hour, the solution was added with 3 mL of a scintillator to measure the radioactivity using a liquid scintillation counter. Inhibition rate was calculated by the following formula using an average value of 8 to 10 cells. Inhibition rate (%)=100−(radioactivity of the well added with the test compound)/(radioactivity of the well not added with the test compound)×100 […]

human LAT1 (hLAT1) [2] = molecular target: T1, human LAT1 (hLAT1) (Homo sapiens, UniProt Q01650); test: as above; assay type: cell-based; conditions: 10 μM 14C-Leu, 30 minutes uptake, oocytes with hLAT1 and h4F2hc cRNA
T1 construct: expressed in transfected cells; host or cells: Xenopus laevis oocytes injected with cRNA
Procedure: as §1, §2, §3, §4, §5, §6, §7, §8, §9

human LAT2 (hLAT2) = molecular target: T2, human LAT2 (hLAT2) (Homo sapiens, UniProt Q9UHI5); test: Inhibition of leucine uptake into hLAT2 expressing Xenopus oocytes; assay type: cell-based; conditions: 10 μM 14C-Leu, 30 minutes uptake, oocytes with hLAT2 and h4F2hc cRNA
T2 construct: expressed in transfected cells; host or cells: Xenopus laevis oocytes injected with cRNA
T2 sequence (Q9UHI5 1-535): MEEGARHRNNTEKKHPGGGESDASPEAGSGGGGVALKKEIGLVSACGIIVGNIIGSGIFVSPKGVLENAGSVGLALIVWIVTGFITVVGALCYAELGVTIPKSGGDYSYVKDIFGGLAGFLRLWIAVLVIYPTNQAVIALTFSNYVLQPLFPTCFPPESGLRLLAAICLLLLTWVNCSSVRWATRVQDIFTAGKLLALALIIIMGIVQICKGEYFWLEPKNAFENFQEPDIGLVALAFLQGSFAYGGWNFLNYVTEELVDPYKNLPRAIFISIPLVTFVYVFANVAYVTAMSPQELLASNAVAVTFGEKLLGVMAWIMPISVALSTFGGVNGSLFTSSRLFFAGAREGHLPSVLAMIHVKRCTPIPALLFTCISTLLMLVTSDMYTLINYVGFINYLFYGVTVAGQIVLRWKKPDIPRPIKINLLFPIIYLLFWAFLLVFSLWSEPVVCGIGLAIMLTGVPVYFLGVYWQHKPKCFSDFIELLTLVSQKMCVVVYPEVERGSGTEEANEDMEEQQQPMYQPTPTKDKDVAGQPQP
Procedure: as §1, §2, §3, §4, §5, §6, §7, §8, §9

[3] = Acute toxicity test, intravenous administration of mice (LD50); conditions: mouse, in vivo
Procedure: Further, with respect to the compounds of Examples 77-79 and Example 98, an acute toxicity test for intravenous administration of mice were carried out to obtain LD50.

LAT1 = molecular target: T3, LAT1 (Homo sapiens, UniProt Q01650); test: LAT1 inhibiting activity: inhibition of 14C-L-leucine uptake in T24 cells; assay type: cell-based; conditions: 1 μM 14C-Leu, 1-minute uptake
T3 construct: Using human bladder cancer cell strain T24 cells, in which LAT1 only was strongly expressed; endogenous in cells; host or cells: T24 human bladder cancer cells
Procedure: 1) To each of the weighed test compounds, DMSO was added to prepare a 100 mM solution or suspension as a DMSO stock. In an assay, the stock was diluted 1,000 fold with a buffer described below. The final concentration of the test compound was 100 μM and the final concentration of DMSO was 0.1%.
2) The LAT1 inhibiting activity of the test compound was determined in the following manner. Using human bladder cancer cell strain T24 cells, in which LAT1 only was strongly expressed, inhibiting activity of each test compound against “^14C”-L-leucine uptake was determined as the LAT1 inhibiting activity.
T24 cells in a logarithmic growth-phase were transferred to a 24-well plate at 0.8×10^5 cell/well and cultured at 37° C. for 2 days. After the plate was incubated at 37° C. on a water bath for 5 minutes, the fixed cells were washed three times with a Hank's balanced salt solution (HBSS: 25 mM HEPES, 125 mM choline chloride, 5.6 mM glucose, 4.8 mM KCl, 1.2 mM MgSO4, 1.2 mM KH2PO4, 1.3 mM CaCl2, pH 7.4) warmed to 37° C., not containing Na^+, to which 500 μl of HBSS (37° C.) was added. Then, further incubation was carried out for 7 minutes.
After the incubation was finished, a supernatant was replaced with HBSS containing 1 μM ^14C-Leu and 100 μM test compound (37° C.), followed by 1-minute uptake. Then, the cells were washed three times with HBSS of 4° C. The washed cells were added with 500 μl of 0.1 N NaOH to dissolve the cells for 20 minutes. The cell solution was transferred to a vial, to which 3 ml of a scintillator was added to measure the radioactivity with a liquid scintillation counter.
Inhibition % was calculated by the following formula. Inhibition %=100−(radioactivity of the well added with the test compound)/(radioactivity of the well not added with the test compound)×100

sarcoma 180 cells = test: Sarcoma 180 subcutaneous implant in mice, tumor weight; assay type: in vivo, ICR mice; conditions: 100 mg/kg intravenously for 7 days; tumor weight 10 days after implantation
Procedure: In an inguinal region of ICR mice, 1×10^6 sarcoma 180 cells were implanted subcutaneously. After 24 hours from the implantation, administration of the test compounds (Example 6-3) and Example 49-3)) was started, which was continued intravenously for 7 days. Each of the test compounds was dissolved in a physiologic saline containing 10% DMSO and 10% Tween 80 so that the amount of the test compound became 100 mg/kg, which was intravenously administered in an amount of 0.1 ml per 10 g of body weight. After 10 days from the implantation, tumor weight was measured and a proliferation inhibiting rate was calculated by the following formula to be compared with that of nontreated controls. Proliferation inhibiting rate (T/C)=[1−(average tumor weight of the group added with the test compound/average tumor weight of the control group)]×100

T1 sequence (Q01650 whole entry): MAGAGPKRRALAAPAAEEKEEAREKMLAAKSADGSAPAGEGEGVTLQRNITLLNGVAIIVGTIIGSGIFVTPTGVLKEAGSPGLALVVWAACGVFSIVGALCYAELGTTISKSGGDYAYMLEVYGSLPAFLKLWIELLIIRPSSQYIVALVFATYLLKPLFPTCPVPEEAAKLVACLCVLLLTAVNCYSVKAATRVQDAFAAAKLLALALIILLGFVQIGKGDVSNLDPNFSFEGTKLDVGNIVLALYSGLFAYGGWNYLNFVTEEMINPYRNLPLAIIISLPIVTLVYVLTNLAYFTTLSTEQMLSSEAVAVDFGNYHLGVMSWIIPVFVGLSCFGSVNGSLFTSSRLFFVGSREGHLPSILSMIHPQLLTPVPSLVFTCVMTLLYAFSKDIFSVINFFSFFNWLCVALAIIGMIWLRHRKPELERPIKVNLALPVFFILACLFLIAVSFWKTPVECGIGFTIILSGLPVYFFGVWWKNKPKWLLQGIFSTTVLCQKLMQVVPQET
T3 sequence (Q01650 whole entry): as above
T3 sequence (P08195 102-630 partner): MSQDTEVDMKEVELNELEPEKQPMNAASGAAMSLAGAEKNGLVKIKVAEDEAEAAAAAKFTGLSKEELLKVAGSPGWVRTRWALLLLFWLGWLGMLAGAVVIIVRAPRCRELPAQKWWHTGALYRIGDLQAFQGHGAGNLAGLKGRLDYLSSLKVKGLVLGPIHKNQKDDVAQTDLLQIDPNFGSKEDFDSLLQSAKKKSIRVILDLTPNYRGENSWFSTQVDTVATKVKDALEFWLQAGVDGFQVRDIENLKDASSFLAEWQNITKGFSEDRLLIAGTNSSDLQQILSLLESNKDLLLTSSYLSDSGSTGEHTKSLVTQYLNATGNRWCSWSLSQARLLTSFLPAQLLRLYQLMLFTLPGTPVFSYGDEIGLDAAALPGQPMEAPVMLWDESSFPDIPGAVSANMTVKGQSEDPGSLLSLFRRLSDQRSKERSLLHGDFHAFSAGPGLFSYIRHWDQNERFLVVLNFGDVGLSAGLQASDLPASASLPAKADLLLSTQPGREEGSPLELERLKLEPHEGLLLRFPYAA

Structure (SMILES) | pIC50 (human LAT1 (hLAT1) [2]) | pIC50 (human LAT2 (hLAT2)) | melting point | Selectivity (L2/L1) (human LAT1 (hLAT1) [1]) [times] | LD50 [3] [mg/kg] | pIC50 (LAT1) | proliferation inhibiting rate (sarcoma 180 cells) [%]
N[C@@H](Cc1cc(Cl)c(OCCc2coc(-c3ccccc3)n2)c(Cl)c1)C(=O)O [Example 9] | 6.15 | 4.16 | 198 to 205 °C | 100 | – | – | –
NC1(C(=O)O)CC2CCC1C2 (centres unmarked) [BCH, 2-aminobicyclo-(2,2,1)-heptane-2-carboxylic acid, reference compound] | – | – | – | – | ≥ 300 | 4.00 | –
N[C@@H](Cc1cc(Cl)c(OCCc2csc(-c3ccccc3)n2)c(Cl)c1)C(=O)O [Example 15] | > 6.00 | < 4.00 | 205 to 210 °C (dec.) | ≥ 100 | – | – | –
N[C@@H](Cc1cccc(OCCc2ccc3ccccc3c2)c1)C(=O)O [Example 59, 3-[2-(2-naphthyl)ethoxy]-L-phenylalanine] | – | > 6.00 | 210 to 214 °C (dec.) | ≤ 0.1 | – | – | –
N[C@@H](Cc1cc(Cl)c(OCc2cccc3nc(-c4ccccc4)oc23)c(Cl)c1)C(=O)O [Example 6-2), 3,5-dichloro-O-[(2-phenyl)-benzoxazol-7-yl]methyl-L-tyrosine] | 7.00 | – | 233 to 238 °C (dec.) | 1000 | – | 6.52 | –
N[C@@H](Cc1cc(Cl)c(OCCc2coc(-c3ccc4ccccc4c3)n2)c(Cl)c1)C(=O)O [Example 17] | > 6.00 | < 4.00 | 232 to 233 °C (dec.) | ≥ 100 | – | – | –
COC(=O)[C@@H](N)Cc1cc(Cl)c(OCc2cccc3nc(-c4ccccc4)oc23)c(Cl)c1.Cl [Example 6-3), 3,5-Dichloro-O-[(2-phenyl)-benzoxazol-7-yl]methyl-L-tyrosine methyl ester hydrochloride] | – | – | 225 to 225.5 °C (dec.) | – | – | – | 52.2

The next lines start with results.

pIC50 (human LAT1 (hLAT1) [2]) | pIC50 (human LAT2 (hLAT2)) | melting point | Structure (SMILES) | Selectivity (L2/L1) (human LAT1 (hLAT1) [1]) [times] | LD50 [3] [mg/kg] | pIC50 (LAT1) | proliferation inhibiting rate (sarcoma 180 cells) [%]
– | 6.70 | 234 to 237 °C (dec.) | N[C@@H](Cc1cccc(Oc2ccc(Oc3ccc(O)cc3)cc2)c1)C(=O)O [Example 57, 3-[4-(4-hydroxyphenoxy)phenoxy]-L-phenylalanine] | 0.02 | – | – | –
– | > 6.00 | 198 to 202 °C (dec.) | N[C@@H](Cc1cccc(OCCc2ccc3c(c2)CCCC3)c1)C(=O)O [Example 60, 3-[2-[2-(5,6,7,8-tetrahydro-naphthyl)]ethoxy]-L-phenylalanine] | ≤ 0.1 | – | – | –
– | – | 209 to 211 °C (dec.) | COC(=O)[C@@H](N)Cc1cccc(Oc2ccc3ccccc3c2)c1.Cl [Example 49-3), 3-(2-naphthyloxy)-L-phenylalanine methyl ester hydrochloride] | – | – | – | 41.3
> 6.00 | < 4.00 | 205 to 215 °C (dec.) | N[C@@H](Cc1cc(Cl)c(OCCc2cccc3nc(-c4ccccc4)oc23)c(Cl)c1)C(=O)O [Example 23] | ≥ 100 | – | – | –
